System: A498 complex spheroids with HUVEC/MSC, growth
Assay: Anticancer human tumor A498 cell line growth inhibition [AhR];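 also: seven day exposure starting three days after spheroid seeding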;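 as to viability, T/C: luminescence signal used as a surrogate for viable cells; luminescence viability scaled so 100% equals DMSO vehicle wells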
Details: for IC50: curve of first compound; for viability, T/C: stronger effect = lower value
Procedure, shortened: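 Complex tumor spheroids co-cultured with HUVEC and human MSC stroma; AhR antagonists tested in combination with standard-of-care and investigational agents. Top concentration at or near clinical Cmax (else 10 microM), half-log dilutions; growth expressed as percent test/control.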

[1] = second compound 0.1 µM, first compound 0.0316 µM
[2] = second compound 0.1 µM, first compound 0.1 µM
[3] = second compound 0.1 µM, first compound 0.316 µM
[4] = second compound 0.1 µM, first compound 1 µM
[5] = second compound 0.1 µM, first compound 3.16 µM
[6] = second compound 0.1 µM, first compound 10 µM
[7] = second compound 0.316 µM, first compound 0.0316 µM
[8] = second compound 0.316 µM, first compound 0.1 µM
[9] = second compound 0.316 µM, first compound 0.316 µM
[10] = second compound 0.316 µM, first compound 1 µM
[11] = second compound 0.316 µM, first compound 3.16 µM
[12] = second compound 0.316 µM, first compound 10 µM
[13] = second compound 1 µM, first compound 0.0316 µM
[14] = second compound 1 µM, first compound 0.1 µM
[15] = second compound 1 µM, first compound 0.316 µM
[16] = second compound 1 µM, first compound 1 µM
[17] = second compound 1 µM, first compound 3.16 µM
[18] = second compound 1 µM, first compound 10 µM
[19] = second compound 3.16 µM, first compound 0.0316 µM
[20] = second compound 3.16 µM, first compound 0.1 µM
[21] = second compound 3.16 µM, first compound 0.316 µM
[22] = second compound 3.16 µM, first compound 1 µM
[23] = second compound 3.16 µM, first compound 3.16 µM
[24] = second compound 3.16 µM, first compound 10 µM
[25] = second compound 10 µM, first compound 0.0316 µM
[26] = second compound 10 µM, first compound 0.1 µM
[27] = second compound 10 µM, first compound 0.316 µM
[28] = second compound 10 µM, first compound 1 µM
[29] = second compound 10 µM, first compound 3.16 µM
[30] = second compound 10 µM, first compound 10 µM

| Compound | IC50 (second compound 0.1 µM) [nM] | IC50 (second compound 0.316 µM) [nM] | IC50 (second compound 1 µM) [nM] | IC50 (second compound 3.16 µM) [nM] | IC50 (second compound 10 µM) [nM] | viability, T/C [1] [%] | viability, T/C [2] [%] | viability, T/C [3] [%] | viability, T/C [4] [%] | viability, T/C [7] [%] | viability, T/C [8] [%] | viability, T/C [9] [%] | viability, T/C [10] [%] | viability, T/C [13] [%] | viability, T/C [14] [%] | viability, T/C [15] [%] | viability, T/C [16] [%] | viability, T/C [19] [%] | viability, T/C [20] [%] | viability, T/C [21] [%] | also measured |
| --- | --- | --- | --- | --- | --- | --- | --- | --- | --- | --- | --- | --- | --- | --- | --- | --- | --- | --- | --- | --- | --- |
| COc1ccc([C@@H](O)c2cc(-c3ncnc4cc(N5CCOCC5)ccc34)c(F)cc2Cl)nn1 + Cc1ccccc1N=Nc1ccc(NC(=O)c2ccnn2C)c(C)c1 | 252 | 562 | 650 | 666 | 630 | 85.8 | 58 | 40.8 | 42.9 | 71.1 | 90.5 | 54.8 | 41.5 | 85.7 | 84 | 81.2 | 31.4 | 91.9 | 92.9 | 71.1 | viability, T/C [5]: 18.1%; viability, T/C [6]: 9.01%; viability, T/C [11]: 11.4%; viability, T/C [12]: 9.4%; viability, T/C [17]: 10.2%; viability, T/C [18]: 6.98%; viability, T/C [22]: 38.5%; viability, T/C [23]: 12.6%; viability, T/C [24]: 6.52%; viability, T/C [25]: 83.4%; viability, T/C [26]: 83.2%; viability, T/C [27]: 67.2%; viability, T/C [28]: 37.5%; viability, T/C [29]: 17.5%; viability, T/C [30]: 7.07% |
| COc1cccc2c1C(=O)c1c(O)c3c(c(O)c1C2=O)CC(O)(C(=O)CO)CC3OC1CC(N)C(O)C(C)O1 (stereo not given) + Cc1cncc(-c2nc(NCCc3c[nH]c4ccccc34)c3ncn(C(C)C)c3n2)c1 | 266 | 380 | 175 | < 31.6 | < 31.6 | 64.7 | 57.1 | 48.8 | 20.3 | 61.1 | 65.6 | 56.3 | 15.4 | 58.6 | 55.9 | 43.1 | 10.3 | 48.8 | 50.7 | 37.7 | viability, T/C [5]: 1.26%; viability, T/C [6]: 0.76%; viability, T/C [11]: 1.1%; viability, T/C [12]: 0.72%; viability, T/C [17]: 1.14%; viability, T/C [18]: 0.7%; viability, T/C [22]: 2.21%; viability, T/C [23]: 1.26%; viability, T/C [24]: 0.84%; viability, T/C [25]: 5.86%; viability, T/C [26]: 6.1%; viability, T/C [27]: 9.17%; viability, T/C [28]: 0.29%; viability, T/C [29]: 0.94%; viability, T/C [30]: 0.55% |
| Nc1ncn(C2CC(O)C(CO)O2)c(=O)n1 (stereo not given) + Cc1cncc(-c2nc(NCCc3c[nH]c4ccccc34)c3ncn(C(C)C)c3n2)c1 | > 1000 | > 1000 | > 1000 | > 1000 | < 3.16 | 88.5 | 85.4 | 75 | 70.1 | 92.5 | 88.5 | 83.2 | 81.9 | 85 | 79.8 | 81 | 76 | 71.1 | 60.6 | 62.8 | viability, T/C (second compound 0.1 µM, first compound 0.00316 µM): 83.2%; viability, T/C (second compound 0.1 µM, first compound 0.01 µM): 93.2%; viability, T/C (second compound 0.316 µM, first compound 0.00316 µM): 90.3%; viability, T/C (second compound 0.316 µM, first compound 0.01 µM): 94.5%; viability, T/C (second compound 1 µM, first compound 0.00316 µM): 85.4%; viability, T/C (second compound 1 µM, first compound 0.01 µM): 86.4%; viability, T/C (second compound 3.16 µM, first compound 0.00316 µM): 61.5%; viability, T/C (second compound 3.16 µM, first compound 0.01 µM): 65.8%; viability, T/C [22]: 63.4%; viability, T/C (second compound 10 µM, first compound 0.00316 µM): 4.02%; viability, T/C (second compound 10 µM, first compound 0.01 µM): 3.97%; viability, T/C [25]: 6.07%; viability, T/C [26]: 3.94%; viability, T/C [27]: 4.34%; viability, T/C [28]: 4.63% |

— PubChem BioAssay AID1919007 (Molecular Pharmacology Branch, DTP, NCI, 2023)
